Where a name gives a salt, the structure may show the parent alone.
What was measured:
[1] = biological target: T1, 5-lipoxygenase (Rattus norvegicus, UniProt P12527); experiment: Inhibitory action on 5-lipoxygenase (5-HETE formation in RBL-1 cells); type: cell-based; settings: read-out: Inhibition rate (%) of 5-HETE formation; for inhibition at 1 µM: 10^-6 M; for inhibition at 0.1 µM: 10^-7 M; for inhibition at 0.01 µM: 10^-8 M
T1 construct: endogenous in cells; host or cells: RBL-1 (rat basophilic leukemia cells)
T1 sequence (P12527 1-673): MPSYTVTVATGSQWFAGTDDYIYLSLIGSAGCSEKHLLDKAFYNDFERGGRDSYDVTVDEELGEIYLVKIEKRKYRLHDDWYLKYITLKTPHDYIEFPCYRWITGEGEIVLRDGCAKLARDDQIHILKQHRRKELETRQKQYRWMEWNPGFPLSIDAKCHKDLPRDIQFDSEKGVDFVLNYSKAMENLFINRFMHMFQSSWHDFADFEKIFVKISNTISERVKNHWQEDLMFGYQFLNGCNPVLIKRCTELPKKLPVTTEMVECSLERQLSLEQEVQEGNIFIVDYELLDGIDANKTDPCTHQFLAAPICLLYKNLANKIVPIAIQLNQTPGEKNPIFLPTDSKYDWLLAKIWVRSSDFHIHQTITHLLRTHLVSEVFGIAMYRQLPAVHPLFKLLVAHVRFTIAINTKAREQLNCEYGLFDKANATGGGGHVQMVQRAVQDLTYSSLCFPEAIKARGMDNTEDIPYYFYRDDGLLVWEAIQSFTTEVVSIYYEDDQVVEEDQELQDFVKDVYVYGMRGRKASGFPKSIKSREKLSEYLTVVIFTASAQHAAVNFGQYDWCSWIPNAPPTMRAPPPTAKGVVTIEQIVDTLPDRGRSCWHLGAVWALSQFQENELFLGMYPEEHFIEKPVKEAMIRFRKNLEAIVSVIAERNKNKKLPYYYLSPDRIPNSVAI
Procedure: RBL-1 cells (rat basophilic leukemia cells) of 10^7 were suspended in 0.9 ml of MCM (mast cell medium). […] The mixture was incubated at 37° C. for 5 minutes. Then, 0.1 ml of MCM containing 50 μg of arachidonic acid and 10 μg of calcium ionophore A-23187 was added and further the mixture was incubated at 37° C. for 15 minutes. After the reaction, 1 ml of ethanol was added, well shaken and subjected to high performance liquid chromatography to determine 5-HETE. The absorption at 240 nm due to 5-HETE was measured by an ultraviolet abosorption monitor. The inhibition rate of 5-HETE formation is represented by (1-b/a)×100, wherein a is the peak height or area in the absence of the compound (I) and b is that in the presence of the compound (I).

[2] = tested on: formation of HHT (12-hydroxyheptadeca-5,8,10-trienoic acid) in rat's platelet; experiment: Inhibitory action for the formation of HHT in rat's platelet; type: cell-based; settings: rat platelet rich plasma, read-out: Inhibition rate (%) of HHT formation; for inhibition at 100 µM: 10^-4 M; for inhibition at 10 µM: 10^-5 M; for inhibition at 1 µM: 10^-6 M
Procedure: Eight ml of blood was gathered from the abdominal aorta of a rat (JcI : Wistar, male, 12-15 weeks age) subjected to abdominal incision under anesthesia by the use of 3.2 % sodium citrate (1 volume of sodium citrate solution to 9 volume of whole blood). The blood was centrifuged at 800 rpm for 10 minutes at room temperature to gather PRP (platelet rich plasma), and the residual blood was further centrifuged at 3000 rpm for 10 minutes to gather PPP (platelet poor plasma). The platelet number in PRP was measured and the PRP was adjusted by diluting with PPP so that the concentration of platelet was one million/μl. To 0.25 ml of the PRP, 125 μg of arachidonic acid and the test compound (the final concentration of 100 μM, 10 μM, 1 μM and 0.1 μM) were added, and the mixture was incubated at 37° C. for 15 minutes. After the reaction, 1.1 ml of ethanol was added, well shaken and centrifuged at 2000 rpm for 10 minutes to separate the supernatant. To 1 ml of the supernatant 1 ml of water was added and subjected to high performance liquid chromatography to determine HHT. The absorption at 240 nm due to HHT was measured by an ultraviolet absorption monitor. […]

[3] = tested on: Behavior change due to the spinal intrathecal injection of ferrous chloride in mice; experiment: Behavior change due to spinal intrathecal injection of ferrous chloride in mice; type: in vivo, Slc:ICR mouse; settings: 100 mg/kg p.o., 30 min before i.t. ferrous chloride; for Average score, 100 mg/kg dose: scale 0 (normal) to 5 (death); for Inhibition rate (%): vs saline
Procedure: In male Slc : ICR mouse of 5 weeks age 10 mice per group were used. […] The evaluation point of behavior change was scored according to the following criterion.
The inhibition rate was shown based on the evaluation point under the above criterion. The test compound was orally administered 30 minutes before the i.t. injection of ferrous chloride.

[4] = tested on: lipoperoxide formation in rat's brain homogenate; experiment: Inhibitory action for lipoperoxide formation in rat's brain homogenate (thiobarbituric acid method); type: biochemical; settings: read-out: IC50 (M) × 10^-7
Procedure: According to the method by Suno et al. (Japan J. Pharmacol., 35, 196(1984) , the concentration of the compound necessary for 50% inhibition of lipoperoxide formation in rat's brain homogenate was determined by examining the lipoperoxide formation using the thiobarbituric acid method. The results obtained are shown in Table 3.

[5] = biological target: T2, Leukotriene D4 (LTD4) receptor (Cavia porcellus, UniProt Q2NNR5); experiment: Leukotriene D4 (LTD4) receptor antagonism ([3H]LTD4, guinea pigs' lung membrane fraction); type: binding, guinea pig; settings: read-out: Inhibition rate (%) LTD4 receptor; for inhibition at 1 µM: 10^-6 M; for inhibition at 0.1 µM: 10^-7 M; for inhibition at 0.01 µM: 10^-8 M
T2 construct: guinea pigs' lung membrane fraction; from tissue; host or cells: guinea pig lung membrane fraction
T2 sequence (Q2NNR5 1-340): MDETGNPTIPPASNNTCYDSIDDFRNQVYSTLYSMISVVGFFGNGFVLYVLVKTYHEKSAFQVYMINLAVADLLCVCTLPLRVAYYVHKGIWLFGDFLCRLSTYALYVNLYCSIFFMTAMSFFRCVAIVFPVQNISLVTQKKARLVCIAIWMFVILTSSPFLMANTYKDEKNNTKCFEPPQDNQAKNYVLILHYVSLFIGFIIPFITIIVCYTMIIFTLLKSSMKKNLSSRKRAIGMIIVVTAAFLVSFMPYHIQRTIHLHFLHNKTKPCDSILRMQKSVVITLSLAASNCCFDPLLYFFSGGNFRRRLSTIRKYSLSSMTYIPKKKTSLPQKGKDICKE
Procedure: According to the method by S. S. Pong , and R. N. DeHaven (Proceedings of the National Academy of Sciences of the United States of America, 80, 7415-7419 (1983) , the leukotriene D4 (LTD4) receptor antagonism was measured by using [^3 H]LTD4 and guinea pigs' lung membrane fraction. The results are shown in Table 5.

With `COc1ccc(C=Cc2nc3c(s2)NCCCC3)cc1` [Example 2, 2-(4-Methoxystyryl)-5,6,7,8-tetrahydro-4H-thiazolo[5,4-b]azepine] the inhibition at 1 µM [1] was 100%, the inhibition at 0.1 µM [1] was 56% and the inhibition at 0.01 µM [1] was 14%. For the same compound, the inhibition at 100 µM [2] was 100%, the inhibition at 10 µM [2] was 58% and the inhibition at 1 µM [2] was 16%. The “Average score, 100 mg/kg dose” value [3] was 1.2 and the “Inhibition rate (%)” value [3] was 74.5%.

`C(=Cc1nc2c(s1)NCCCC2)c1ccccc1` [Example 3, 2-Styryl-5,6,7,8-tetrahydro-4H-thiazolo[5,4-b]azepine] gave an inhibition at 100 µM [2] of 100%, an inhibition at 10 µM [2] of 83% and an inhibition at 1 µM [2] of 22%.

With `COc1ccc(-c2nc3c(s2)NCCCC3)cc1` [Example 5, 2-(4-Methoxyphenyl)-5,6,7,8-tetrahydro-4H-thiazolo[5,4-b]azepine hydrochloride] the “Average score, 100 mg/kg dose” value [3] was 0.9 and the “Inhibition rate (%)” value [3] was 82.0%.

With `CCOc1ccc(C=Cc2nc3c(s2)NCCCC3)cc1` [Example 7, 2-(4-Ethoxystyryl)-5,6,7,8-tetrahydro-4H-thiazolo[5,4-b]azepine] the IC50 [4] was 8e-07 M.

For `COc1ccc(C=CC=Cc2nc3c(s2)NCCCC3)cc1` [Example 9, 2-[4-(4-Methoxyphenyl)butadienyl]-5,6,7,8-tetrahydro-4H-thiazolo [5,4-b]azepine], the inhibition at 1 µM [1] was 100%, the inhibition at 0.1 µM [1] was 79% and the inhibition at 0.01 µM [1] was 12%. It also gave an IC50 [4] of 7e-07 M.

`COc1ccccc1C=Cc1nc2c(s1)NCCCC2` [Example 12, 2-(2-Methoxystyryl)-5,6,7,8-tetrahydro-4H-thiazolo [5,4-b)azepine oxalate] showed an IC50 [4] of 6e-07 M.

Work on `C(=Cc1nc2c(s1)NCCCC2)c1ccc2c(c1)OCO2` [Example 13, 2-(3,4-Methylenedioxystyryl)-5,6,7,8-tetrahydro-4H-thiazolo[5,4-b]azepine hydrochloride] yielded an inhibition at 1 µM [5] of 100%, an inhibition at 0.1 µM [5] of 92.5% and an inhibition at 0.01 µM [5] of 61%.

In the case of `COc1ccc(C=Cc2nc3c(s2)NCCCC3)cc1OC.Cl` [Example 16, 2-(3,4-Dimethoxystyryl)-5,6,7,8-tetrahydro-4H-thiazolo[5,4-b]azepine hydrochloride], the “Average score, 100 mg/kg dose” value [3] is reported as 0.3 and the “Inhibition rate (%)” value [3] is reported as 94.0%.

Work on `Clc1ccc(C=Cc2nc3c(s2)NCCCC3)cc1Cl` [Example 20, 2-(3,4-Dichlorostyryl)-5,6,7,8-tetrahydro-4H-thiazolo[5,4-b]azepine] yielded an inhibition at 1 µM [1] of 100%, an inhibition at 0.1 µM [1] of 44% and an inhibition at 0.01 µM [1] of 2%. For the same compound, the inhibition at 100 µM [2] was 96%, the inhibition at 10 µM [2] was 43% and the inhibition at 1 µM [2] was 18%.

With `O=[N+]([O-])c1ccc(C=Cc2nc3c(s2)NCCCC3)cc1` [Example 22, 2-(4-Nitrostyryl)-5,6,7,8-tetrahydro-4H-thiazolo-[5,4-b]azepine] the inhibition at 1 µM [1] was 100%, the inhibition at 0.1 µM [1] was 49% and the inhibition at 0.01 µM [1] was 4%.

Compound `Fc1ccccc1-c1nc2c(s1)NCCCC2` [Example 23, 2-(2-Fluorophenyl)-5,6,7,8-tetrahydro-4H-thiazolo [5,4-b]azepine] has an IC50 [4] of 1.2e-06 M.

`O=[N+]([O-])c1ccc(-c2nc3c(s2)NCCCC3)cc1` [Example 24, 2-(4-Nitrophenyl)-5,6,7,8-tetrahydro-4H-thiazolo[5,4-b]azepine] was tested, and the inhibition at 1 µM [1] was 93%, the inhibition at 0.1 µM [1] was 53% and the inhibition at 0.01 µM [1] was 26%.

Work on `c1ccc2cc(-c3nc4c(s3)NCCCC4)ccc2c1` [Example 30, 2-(2-Naphthyl)-5,6,7,8-tetrahydro-4H-thiazolo [5,4-b]azepine] yielded an inhibition at 1 µM [5] of 100%, an inhibition at 0.1 µM [5] of 98.8% and an inhibition at 0.01 µM [5] of 76%.

`c1csc(-c2nc3c(s2)NCCCC3)c1` [Example 31, 2-(2-Thienyl)-5,6,7,8-tetrahydro-4H-thiazolo[5,4-b]azepine] showed an inhibition at 100 µM [2] of 100%, an inhibition at 10 µM [2] of 80% and an inhibition at 1 µM [2] of 19%.

Work on `CS(=O)(=O)N1CCCCc2nc(-c3ccncc3)sc21` [Example 41, 4-Methanesulfonyl-2-(4-pyridyl)-5,6,7,8-tetrahydro-4H-thiazolo[5,4-b]azepin] yielded an inhibition at 100 µM [2] of 87%, an inhibition at 10 µM [2] of 63% and an inhibition at 1 µM [2] of 23%.
